Patent US20220281821A1, “INDAZOLE COMPOUNDS AND THEIR PHARMACEUTICAL COMPOSITIONS” (Jinan University, priority 2019, published 2022)

How the values were obtained:
TRKA = target: T1, TRKA (Homo sapiens, UniProt P04629); assay: Z′-LYTE kinase activity assay, TRKA; format: biochemical; details: ATP 400 uM
T1 construct: purchased life technologies PV3144
From the text: (§1) Kinase activity assay: Z′-LYTE™ technology (detection by fluorescence, enzyme-conjugated format, based on the difference in sensitivity of phosphorylated and non-phosphorylated peptides to proteolytic cleavage) was applied, and using the principle of fluorescence resonance energy transfer (FRET), a Z′-LYTE™ FRET peptide substrate (Z′-LYTE™ Tyrosine 1 Peptide Substrate, Invitrogen, PV3190), and a secondary reaction were used to detect the inhibitory activity of the compounds on TRKs (TRK1, TRK2, TRK3) (life technologies, PV3144, PV3616, PV3617).
(§2) Enzymatic reaction: In a 384-well plate, 5 μL of an enzyme-substrate system (50 mM HEPES pH 7.5, 0.01% BRIJ-35, 10 mM MgCl2, 1 mM EGTA, 2 μM Tyr 01 Peptide Substrate) was added and 5 nL of compound (concentration gradient) was transferred thereto by using the echo520 ultramicro liquid pipetting system. […] After shaking and mixing, centrifuging was performed. A reaction was carried out at 30° C. in the dark for 1.5 hours.
(§3) The data were analyzed as follows:
(§4) Phosphorylation ratio=1−{(emission ratio×F100%−C100%)/[C0%−C100%+emission ratio×(F100%−F0%)]}×100;
(§5) Inhibition rate=100×(1−compound phosphorylation ratio/negative control phosphorylation ratio).
(§6) IC50 values were calculated by using GraphPad Prism 5.0 software.

TRKB = target: T2, TRKB (Homo sapiens, UniProt Q16620); assay: Z′-LYTE kinase activity assay, TRKB; format: biochemical; details: ATP 25 uM
T2 construct: purchased life technologies PV3616
T2 sequence (Q16620 32-822): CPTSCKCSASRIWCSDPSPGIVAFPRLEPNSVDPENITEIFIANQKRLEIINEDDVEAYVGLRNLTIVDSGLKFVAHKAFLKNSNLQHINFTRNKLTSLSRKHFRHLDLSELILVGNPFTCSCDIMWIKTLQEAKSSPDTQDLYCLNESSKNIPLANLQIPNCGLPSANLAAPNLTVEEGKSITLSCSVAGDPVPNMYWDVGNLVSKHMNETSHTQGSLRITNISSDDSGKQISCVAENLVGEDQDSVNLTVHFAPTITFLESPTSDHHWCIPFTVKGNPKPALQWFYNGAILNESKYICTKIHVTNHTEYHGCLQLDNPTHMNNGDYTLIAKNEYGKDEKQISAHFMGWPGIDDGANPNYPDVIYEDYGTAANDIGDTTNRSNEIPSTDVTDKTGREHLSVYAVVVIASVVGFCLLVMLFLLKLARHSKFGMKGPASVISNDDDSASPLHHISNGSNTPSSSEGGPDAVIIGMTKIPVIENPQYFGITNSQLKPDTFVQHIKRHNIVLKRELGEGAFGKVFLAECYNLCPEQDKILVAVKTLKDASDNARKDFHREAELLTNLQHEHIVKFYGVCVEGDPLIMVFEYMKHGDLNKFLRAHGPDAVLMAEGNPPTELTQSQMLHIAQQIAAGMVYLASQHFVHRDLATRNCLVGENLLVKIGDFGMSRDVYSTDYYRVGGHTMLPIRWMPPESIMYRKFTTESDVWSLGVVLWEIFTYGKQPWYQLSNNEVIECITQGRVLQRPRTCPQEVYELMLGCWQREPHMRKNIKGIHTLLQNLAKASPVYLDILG
From the text: as §1, §2, §3, §4, §5, §6

TRKC = target: T3, TRKC (Homo sapiens, UniProt Q16288); assay: Z′-LYTE kinase activity assay, TRKC; format: biochemical; details: ATP 50 uM
T3 construct: purchased life technologies PV3617
T3 sequence (Q16288 32-839): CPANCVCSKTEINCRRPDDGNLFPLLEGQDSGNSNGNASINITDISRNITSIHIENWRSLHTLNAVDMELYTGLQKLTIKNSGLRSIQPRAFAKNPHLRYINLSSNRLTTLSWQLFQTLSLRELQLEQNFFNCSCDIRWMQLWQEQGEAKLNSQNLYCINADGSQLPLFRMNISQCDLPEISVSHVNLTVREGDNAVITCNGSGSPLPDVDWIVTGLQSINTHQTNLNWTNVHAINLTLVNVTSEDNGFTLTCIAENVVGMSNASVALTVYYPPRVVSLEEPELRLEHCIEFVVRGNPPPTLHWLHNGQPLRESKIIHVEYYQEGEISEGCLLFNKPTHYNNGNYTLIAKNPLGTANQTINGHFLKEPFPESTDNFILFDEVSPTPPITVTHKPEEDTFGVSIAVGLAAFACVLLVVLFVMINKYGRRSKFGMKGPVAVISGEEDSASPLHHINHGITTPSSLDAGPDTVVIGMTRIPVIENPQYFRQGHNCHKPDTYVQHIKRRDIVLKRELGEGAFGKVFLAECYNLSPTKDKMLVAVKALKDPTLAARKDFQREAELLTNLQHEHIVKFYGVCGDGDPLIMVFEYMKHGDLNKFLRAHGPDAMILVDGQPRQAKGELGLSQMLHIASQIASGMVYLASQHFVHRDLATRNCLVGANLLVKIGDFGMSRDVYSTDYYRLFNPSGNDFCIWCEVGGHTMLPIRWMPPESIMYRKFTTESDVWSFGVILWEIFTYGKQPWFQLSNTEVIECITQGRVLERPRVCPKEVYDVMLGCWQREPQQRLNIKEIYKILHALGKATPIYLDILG
From the text: as §1, §2, §3, §6

BaF3-CD74-NTRK1 = target: T4, BaF3-CD74-NTRK1 (Homo sapiens, UniProt P04629); assay: Cell proliferation inhibition (CCK-8), BaF3-CD74-NTRK1 stable strain; format: cell-based, mouse; details: BaF3-CD74-NTRK1, 72 hours
T4 construct: fused on or other part: P04233 (HLA class II histocompatibility antigen gamma chain)
T4 sequence (P04629 510-796 limits assumed): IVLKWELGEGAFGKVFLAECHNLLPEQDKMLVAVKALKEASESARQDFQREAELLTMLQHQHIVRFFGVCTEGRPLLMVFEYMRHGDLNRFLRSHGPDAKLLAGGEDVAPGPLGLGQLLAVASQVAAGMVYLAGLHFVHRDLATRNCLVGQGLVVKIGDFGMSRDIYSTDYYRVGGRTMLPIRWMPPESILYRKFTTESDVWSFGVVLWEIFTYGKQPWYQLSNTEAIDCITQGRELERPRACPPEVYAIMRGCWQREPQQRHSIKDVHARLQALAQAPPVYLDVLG
Procedure: (§7) The brief steps of stable strain construction are as follows: construct a pCDNA3.1(+) plasmid vector carrying genes such as CD74-NTRK1, ETV6-NTRK2 and ETV6-NTRK3; the plasmid was electroporated into Ba/F3 cells using the Amaxa® Cell Line Nucleofector® Kit V; 48 hours after electroporated, G418 with a final concentration of 1000 μg/ml was added for screening for two weeks, and then IL3 was removed, and continued screening to obtain polyclonal stable strains; then single clones were selected by a limiting dilution method. The stable strains were then identified using positive drugs, WB and gene sequencing; and the monoclonal clones that were identified as completely correct may be used for the study of cell proliferation inhibitory activity of inhibitors.
(§8) Cell proliferation inhibition activity study: the cells in the logarithmic growth phase were seeded into 96-well plates at 8000-12000 cells/well, and inhibitors at different concentrations (0-10 μM) were added the next day, and incubation was continued for 72 hours; then 10 μL of CCK-8 reagent was added to each well, and the incubation was continued for 1-3 hours; and then use a super microplate reader to measure their absorbance values at 450 nm and 650 nm. The half-inhibition concentration (IC50) was calculated using GraphPad Prism 8.0.0.

BaF3-ETV6-NTRK2 = target: T5, BaF3-ETV6-NTRK2 (Homo sapiens, UniProt Q16620); assay: Cell proliferation inhibition (CCK-8), BaF3-ETV6-NTRK2 stable strain; format: cell-based, mouse; details: BaF3-ETV6-NTRK2, 72 hours
T5 construct: fused on or other part: P41212 (Transcription factor ETV6)
T5 sequence (Q16620 538-822 limits assumed): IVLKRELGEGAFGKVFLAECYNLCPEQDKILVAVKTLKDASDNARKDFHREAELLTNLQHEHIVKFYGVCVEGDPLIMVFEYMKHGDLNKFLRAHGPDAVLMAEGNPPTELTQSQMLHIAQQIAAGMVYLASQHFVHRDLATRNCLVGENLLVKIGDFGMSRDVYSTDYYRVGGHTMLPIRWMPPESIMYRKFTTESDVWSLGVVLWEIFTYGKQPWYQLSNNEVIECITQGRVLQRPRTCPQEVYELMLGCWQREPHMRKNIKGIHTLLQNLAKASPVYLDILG
Procedure: as §7, §8

BaF3-ETV6-NTRK3 = target: T6, BaF3-ETV6-NTRK3 (Homo sapiens, UniProt Q16288); assay: Cell proliferation inhibition (CCK-8), BaF3-ETV6-NTRK3 stable strain; format: cell-based, mouse; details: BaF3-ETV6-NTRK3, 72 hours
T6 construct: fused on or other part: P41212 (Transcription factor ETV6)
T6 sequence (Q16288 whole entry, the tested form may be a part): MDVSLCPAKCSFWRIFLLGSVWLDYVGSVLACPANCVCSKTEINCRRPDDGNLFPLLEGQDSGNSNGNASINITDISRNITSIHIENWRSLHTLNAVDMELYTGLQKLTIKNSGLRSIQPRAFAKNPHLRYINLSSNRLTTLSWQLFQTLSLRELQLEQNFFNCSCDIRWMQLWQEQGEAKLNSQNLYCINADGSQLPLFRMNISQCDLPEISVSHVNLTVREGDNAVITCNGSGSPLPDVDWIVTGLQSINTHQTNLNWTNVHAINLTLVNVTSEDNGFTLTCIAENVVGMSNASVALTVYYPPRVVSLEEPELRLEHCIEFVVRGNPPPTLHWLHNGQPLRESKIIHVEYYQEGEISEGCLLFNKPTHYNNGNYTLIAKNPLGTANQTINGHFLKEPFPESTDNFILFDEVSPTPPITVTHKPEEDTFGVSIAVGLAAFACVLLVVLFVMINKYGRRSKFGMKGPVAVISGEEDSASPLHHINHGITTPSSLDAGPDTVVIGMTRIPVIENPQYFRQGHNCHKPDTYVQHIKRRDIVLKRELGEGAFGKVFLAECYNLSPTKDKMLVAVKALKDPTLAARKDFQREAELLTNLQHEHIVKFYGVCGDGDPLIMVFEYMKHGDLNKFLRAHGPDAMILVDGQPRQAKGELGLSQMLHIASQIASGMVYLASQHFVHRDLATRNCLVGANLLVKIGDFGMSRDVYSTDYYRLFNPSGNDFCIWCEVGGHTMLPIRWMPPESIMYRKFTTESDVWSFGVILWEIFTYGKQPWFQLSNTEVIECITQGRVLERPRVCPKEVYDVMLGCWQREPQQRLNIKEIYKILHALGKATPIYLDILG
Procedure: as §7, §8

T1 sequence (P04629 440-796 limits assumed): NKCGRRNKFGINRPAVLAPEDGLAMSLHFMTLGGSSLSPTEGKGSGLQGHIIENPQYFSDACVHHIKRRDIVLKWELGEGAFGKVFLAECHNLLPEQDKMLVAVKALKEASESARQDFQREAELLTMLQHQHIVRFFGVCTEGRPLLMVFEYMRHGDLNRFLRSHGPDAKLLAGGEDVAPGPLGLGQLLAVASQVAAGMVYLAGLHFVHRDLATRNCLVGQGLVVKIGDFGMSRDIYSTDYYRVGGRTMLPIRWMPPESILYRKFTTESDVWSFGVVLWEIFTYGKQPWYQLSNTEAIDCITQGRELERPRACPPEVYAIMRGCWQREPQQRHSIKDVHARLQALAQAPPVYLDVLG

SMILES	IC50 (TRKA) [nM]	IC50 (TRKB) [nM]	IC50 (TRKC) [nM]	IC50 (BaF3-CD74-NTRK1) [nM]	IC50 (BaF3-ETV6-NTRK2) [nM]	IC50 (BaF3-ETV6-NTRK3) [nM]
Fc1cc(F)cc(Cc2ccc3[nH]nc(C#Cc4ccccn4)c3c2)c1 [CCB-484, 5-(3,5-difluorobenzyl)-3-(pyridin-2-ylethynyl)-1H-indazole]	34	83.8	11.8	820	1970	477
Fc1cc(F)cc(Nc2ccc3[nH]nc(/C=C/c4ccccn4)c3c2)c1 [DYX-105, (E)-N-(3,5-difluorophenyl)-3-(2-(pyridin-2-yl)vinyl)-1H-indazol-5-amine]		353	226		2620	2270
Fc1cc(F)cc(C#Cc2ccc3[nH]nc(/C=C/c4ccccn4)c3c2)c1 [DYX-183, (E)-5-((3,5-difluorophenyl)ethynyl)-3-(2-(pyridin-2-yl)vinyl)-1H-indazole]	598	> 1000		> 10000	> 10000	> 10000
Fc1ccccc1CNc1ccc2[nH]nc(/C=C/c3ccccn3)c2c1 [DYX-413, (E)-N-(2-fluorobenzyl)-3-(2-(pyridin-2-yl)vinyl)-1H-indazol-5-amine]				40.8	376	161
Fc1cc(CNc2ccc3[nH]nc(/C=C/c4ccccn4)c3c2)cc(C(F)(F)F)c1 [DYX-414, (E)-N-(3-fluoro-5-(trifluoromethyl)benzyl)-3-(2-(pyridin-2-yl)vinyl)-1H-indazol-5-amine]				196	2520	1180
Fc1cc(Br)cc(CNc2ccc3[nH]nc(/C=C/c4ccccn4)c3c2)c1 [DYX-415, (E)-N-(3-bromo-5-fluorobenzyl)-3-(2-(pyridin-2-yl)vinyl)-1H-indazol-5-amine]				50.8	510	156
Fc1ccc(CNc2ccc3[nH]nc(/C=C/c4ccccn4)c3c2)cc1 [DYX-417, (E)-N-(4-fluorobenzyl)-3-(2-(pyridin-2-yl)vinyl)-1H-indazol-5-amine]				158	2530	579
Cc1ccccc1/C=C/c1n[nH]c2ccc(Cc3cc(F)cc(F)c3)cc12 [Example D01F08, (E)-5-(3,5-difluorobenzyl)-3-(2-methylstyryl)-1H-indazole]				112	400	158
Fc1cc(F)cc(Cc2ccc3[nH]nc(/C=C/c4ccccc4C(F)(F)F)c3c2)c1 [Example D01F11]				12.9	159	25.6
Fc1cc(Cl)cc(Cc2ccc3[nH]nc(/C=C/c4ccccn4)c3c2)c1 [Example D02F01, (E)-5-(3-chloro-5-fluorobenzyl)-3-(2-(pyridin-2-yl)vinyl)-1H-indazole]				204	362	151
COc1cc(F)cc(Cc2ccc3[nH]nc(/C=C/c4ccccn4)c3c2)c1 [Example D05F01, (E)-5-(3-fluoro-5-methoxybenzyl)-3-(2-(pyridin-2-yl)vinyl)-1H-indazole]				203	462	367
Clc1cc(Cl)cc(Cc2ccc3[nH]nc(/C=C/c4ccccn4)c3c2)c1 [Example D06F01, (E)-5-(3,5-dichlorobenzyl)-3-(2-(pyridin-2-yl)vinyl)-1H-indazole]				564	> 10000	851
Cc1cc(C)cc(Cc2ccc3[nH]nc(/C=C/c4ccccn4)c3c2)c1 [Example D07F01, (E)-5-(3,5-dimethylbenzyl)-3-(2-(pyridin-2-yl)vinyl)-1H-indazole]				2310	3020	2040
Cn1cc(/C=C/c2n[nH]c3ccc(NS(=O)(=O)c4cc(F)cc(F)c4)cc23)cn1 [Example D5217, (E)-3,5-difluoro-N-(3-(2-(1-methyl-1H-pyrazol-4-yl)vinyl)-1H-indazol-5-yl)benzenesulfonamide]				90.9	171	125
O=S(=O)(Nc1ccc2[nH]nc(/C=C/c3cn[nH]c3)c2c1)c1cc(F)cc(F)c1 [Example D5220, (E)-3,5-difluoro-N-(3-(2-(1H-pyrazol-4-yl)vinyl)-1H-indazol-5-yl)benzenesulfonamide]				120	215	175
O=S(=O)(Nc1ccc2[nH]nc(/C=C/c3cnn(CCO)c3)c2c1)c1cc(F)cc(F)c1 [Example D5221, (E)-3,5-difluoro-N-(3-{2-[1-(2-hydroxyl-ethyl)-1H-pyrazol-4-yl]-vinyl}-1H-indazol-5-yl)-benzenesulfonamide]				144	196	128
O=S(=O)(c1cc(F)cc(F)c1)c1ccc2[nH]nc(/C=C/c3ccccc3)c2c1 [Example E01F07, (E)-5-((3,5-difluorophenyl)sulfonyl)-3-styryl-1H-indazole]				35.8	441	92.9
Cc1ccccc1/C=C/c1n[nH]c2ccc(S(=O)(=O)c3cc(F)cc(F)c3)cc12 [Example E01F08, (E)-5-((3,5-difluorophenyl)sulfonyl)-3-(2-methylstyryl)-1H-indazole]				43.8	220	82.9
O=S(=O)(c1cc(F)cc(F)c1)c1ccc2[nH]nc(/C=C/c3ccccc3F)c2c1 [Example E01F10, (E)-5-((3,5-difluorophenyl)sulfonyl)-3-(2-fluorostyryl)-1H-indazole]				68.9	610	156

Now those with a lower IC50 (BaF3-ETV6-NTRK2), led by results:

IC50 (TRKA) [nM]	IC50 (TRKB) [nM]	IC50 (TRKC) [nM]	IC50 (BaF3-CD74-NTRK1) [nM]	IC50 (BaF3-ETV6-NTRK2) [nM]	IC50 (BaF3-ETV6-NTRK3) [nM]	SMILES
			35.7	38	11	C[C@@H](Nc1ccc2[nH]nc(/C=C/c3cnccn3)c2c1)c1cc(F)cc(F)c1 [DYX-411, (R,E)-N-(1-(3,5-difluorophenyl)ethyl)-3-(2-(pyrazin-2-yl)vinyl)-1H-indazol-5-amine]
			110	115	35.6	C[C@@H](Nc1ccc2[nH]nc(/C=C/c3ccccc3)c2c1)c1cc(F)cc(F)c1 [DYX-412, (R,E)-N-(1-(3,5-difluorophenyl)ethyl)-3-styryl-1H-indazol-5-amine]
			21	88.7	34.3	Fc1ccc(Cl)c(CNc2ccc3[nH]nc(/C=C/c4ccccn4)c3c2)c1 [DYX-416, (E)-N-(2-chloro-5-fluorobenzyl)-3-(2-(pyridin-2-yl)vinyl)-1H-indazol-5-amine]
			7.6	41	16.2	COc1ccc(F)cc1CNc1ccc2[nH]nc(/C=C/c3ccccn3)c2c1 [DYX-418, (E)-N-(5-fluoro-2-methoxybenzyl)-3-(2-(pyridin-2-yl)vinyl)-1H-indazol-5-amine]
			2.4	11.9	4	Fc1cncc(CNc2ccc3[nH]nc(/C=C/c4ccccn4)c3c2)c1 [DYX-419, (E)-N-((5-fluoropyridin-3-yl)methyl)-3-(2-(pyridin-2-yl)vinyl)-1H-indazol-5-amine]
			40.6	56.1	18.1	COc1ccc(F)cc1Cc1ccc2[nH]nc(/C=C/c3ccccn3)c2c1 [Example D09F01, (E)-5-(5-fluoro-2-methoxybenzyl)-3-(2-(pyridin-2-yl)vinyl)-1H-indazole]
			10.6	19.1	14.1	CCn1cc(/C=C/c2n[nH]c3ccc(NS(=O)(=O)c4cc(F)cc(F)c4)cc23)cn1 [Example D5218, (E)-3,5-difluoro-N-(3-(2-(1-ethyl-1H-pyrazol-4-yl)vinyl)-1H-indazol-5-yl)benzenesulfonamide]
			18.9	133	40.7	O=S(=O)(c1cc(F)cc(F)c1)c1ccc2[nH]nc(/C=C/c3ccncc3)c2c1 [Example E01F02, (E)-5-((3,5-difluorophenyl)sulfonyl)-3-(2-(pyridin-4-yl)vinyl)-1H-indazole]
